Reference: PubChem BioAssay AID179 (DTP/NCI, 2004)
The source made the active and inactive calls.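 The calls were made as follows: active = compounds giving half or more protection of infected cells from virus-caused growth loss, again on retest; inactive = the rest.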 Where a SMILES comes first, the peptide text is derived from it. Bridges are numbered along the chain shown (N, C = ends). [ ]: non-standard residue; d: D form. Aib = CC(C)(N)C(=O)O; βAla = NCCC(=O)O

Test system: CEM cells HIV-1 protection, formazan growth assay
Assay: NCI AIDS Antiviral Assay
Details: for IC50: measured here: growth of uninfected CEM cells
In short: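 Screen of anti-HIV-1 activity in human CEM cells using a formazan-based growth measurement at five drug concentrations. Hits with 50% or greater protection were repeated, and confirmation required reproducible complete protection.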

SMILES	EC50	IC50	outcome
CCOC(=O)CSc1ccnc(=O)[nH]1	> 851 µM	> 851 µM	
Cc1ncc2c(=O)c3c(oc2n1)c1ccccc1n3Cc1ccccc1	> 200 µM	> 200 µM	
O=C(CCN1CCN(c2cccc(Cl)c2)CC1)N1CCc2c([nH]c3ccccc23)C1c1cccnc1 (configuration not stated)	> 10.5 µM	> 10.5 µM	
CC12CC3(O)OC(O1)C1(COC(=O)c4ccccc4)C3C[C@@]21OC1OC(COC(=O)c2cc(O)c(O)c(O)c2)C(O)C(O)C1O (some centres not stated)			inactive
CCOC(=O)CNC(=O)C(CSSCC(NC(=O)OCc1ccccc1)C(=O)OC)NC(=O)C(NC(=O)OCc1ccccc1)C(C)C (configuration not stated)	> 200 µM	129 µM	
COc1ccccc1N/N=c1\c2nc3ccccc3nc1n(-c1ccccc1C)c(=S)n2-c1ccc(Cl)cc1	> 200 µM	178 µM	
N#CCCC1(CCC#N)CCCCCCC(CCC#N)(CCC#N)C(=O)C1=O	> 200 µM	> 200 µM	
COC(=O)[C@@]12OC[C@]34[C@H]([C@@H](O)[C@@H]1O)[C@@]1(C)CC(=O)C(O)=C(C)[C@@H]1C[C@H]3OC(=O)[C@H](OC(=O)C(N)Cc1ccccc1)[C@@H]24 (some centres not stated)			inactive
COC(=O)[C@H](Cc1c[nH]c2ccccc12)NP(=O)(O)OC[C@H]1O[C@@H](n2cc(C)c(=O)[nH]c2=O)C[C@@H]1N=[N+]=[N-]	28.2 µM	> 200 µM	
Nc1cc(-c2ccccc2)nn1-c1nsc2ccccc12	> 17.8 µM	> 17.8 µM	
CC(C)[Si](OC1=C(C(=O)N(C)c2ccccc2Cl)CCCC1)(C(C)C)C(C)C	> 200 µM	16.6 µM	
N#CC12CCC(O)C(CC1)C2=O (configuration not stated)			inactive
CCOC(=O)c1c(-c2ccc(Cl)cc2)c(C#N)c(=S)n(C2OC(COC(C)=O)C(OC(C)=O)C(OC(C)=O)C2OC(C)=O)c1C (configuration not stated)	> 200 µM	36.3 µM	
COP(=O)(OC)c1ccc(NCc2cc(O)ccc2O)cc1	> 55 µM	7.94 µM	
CNc1ccc(Cl)cc1S(=O)(=O)c1ccccc1Br	> 200 µM	3.89 µM	
CC1=C(/C=C/C(C)=C/C=C/C(C)=C/C=C/C=C(C)/C=C/C=C(C)/C=C/C=C(C)/C=C/C=C(\C)C(=O)O)C(C)(C)CCC1	> 4.79 µM	> 4.79 µM	
N#CCC(=O)N/N=C\C(O)C(O)C(O)C(O)CO (configuration not stated)			inactive
Oc1ccc(-c2ccc(O)cc2O)c(O)c1	> 200 µM	132 µM	
C#CC(O)/C=C/C(O)CCCC(O)CC#CC(O)C#CCCCCC(O)/C=C/CCCC(=O)CCCCCCCCCCCCCCCC(O)C(O)C#CC(=O)O (configuration not stated)	> 50.1 µM	28.2 µM	
CSc1nc[nH]c1C(N)=S	> 200 µM	> 200 µM	
N#CC(C#N)=Cn1ccc(=O)[nH]c1=S	> 200 µM	> 200 µM	
Cc1cc2nc3c(C(OC4OC(CO)C(O)C(O)C4O)C(O)CO)nn(-c4ccccc4)c3nc2cc1C (configuration not stated)			inactive

SMILES	EC50	IC50	outcome
CN=C(N)c1ccc(N=C(N)c2cccc(C(N)=Nc3ccc(C(N)=NC)cc3)c2)cc1	> 200 µM	> 200 µM	
COC(=O)C(=O)C1CCCCC(C2=NC3NN=C(N)N3C2=O)C1=O (configuration not stated)	> 21.4 µM	> 21.4 µM	
O=C(O)CCC1CCc2cccc(OCC(=O)O)c2C1=O (configuration not stated)			inactive
O=C1C=CC(=C(c2ccc(O)cc2)c2ccc(O)cc2)C=C1			inactive
CCCCCCCCCCC(C)CCCCCCC(=O)O (configuration not stated)			inactive
c1ccc2sc(SN3CCOCC3)nc2c1	> 10.7 µM	> 10.7 µM	
O=c1oc2ccccc2c2nc3cc(Cl)c(F)cc3cc12	> 25.1 µM	> 25.1 µM	
CCN(CC)CCN(C(=O)c1ccc(F)cc1)c1ccccc1N	> 200 µM	> 200 µM	
COc1cc2oc(-c3ccc4c(c3)OCO4)c(OC)c(=O)c2c(O)c1OC	> 100 µM	> 100 µM	
CCOC(=O)C(C)c1nc2cc(F)c(N3CCOCC3)cc2[nH]c1=O (configuration not stated)	> 200 µM	95.5 µM	
Cc1cn(COCCCSc2ccccc2)c(=O)[nH]c1=O	21.9 µM	166 µM	
N#CCC(C#N)N1CCOCC1 (configuration not stated)	> 200 µM	> 200 µM	
CCOC(=O)/C(=C\c1ccc(CO)o1)P(=O)(OCC)OCC	> 200 µM	30.9 µM	
COP(=O)(O)C(N)Cc1c[nH]c2ccccc12 (configuration not stated)	> 200 µM	> 200 µM	
O=C1/C(=C/c2ccc([N+](=O)[O-])cc2)Cc2ccccc21	> 2.04 µM	> 2.04 µM	
CC(=O)c1cc(N=Nc2ccc(/C=C/c3ccc(N=Nc4cc(O)c5ncccc5c4C(C)=O)cc3S(=O)(=O)O)c(S(=O)(=O)O)c2)c(O)c2ncccc12	> 29.5 µM	28.8 µM	
CSc1nc2nc(C(O)C(O)C(O)CO)cnc2c(=O)[nH]1 (configuration not stated)			inactive
CCCCCCOC(=O)CC1CC(C(C)=O)C1(C)C (configuration not stated)	> 200 µM	> 200 µM	
COP(=O)(OC)c1nc(P(=O)(OC)OC)nc(P(=O)(OC)OC)n1	> 110 µM	89.1 µM	
CC1OC(OC2C(O[C@H]3CC[C@@]4(C)C(=CC[C@H]5[C@@H]6C[C@@H]7O[C@](O)(CC[C@@H](C)COC8OC(CO)C(O)C(O)C8O)[C@@H](C)[C@@H]7[C@@]6(C)CC[C@@H]54)C3)OC(CO)C(O)C2OC2OC(CO)C(O)C(O)C2O)C(O)C(O)C1O (some centres not stated)	> 100 µM	2.51 µM	
CC12CCC(=O)C=C1CCC1C2CCC2(C)C1CCC2(O)C1(O)CCC2C3CCC4=CC(=O)CCC4(C)C3CCC21C (configuration not stated)	> 100 µM	55 µM	
Cc1c(C(=O)O)n2c(=S)[nH]nc2c2ccccc12	> 200 µM	> 200 µM	

SMILES	EC50	IC50	outcome
Cc1ccnc2c1C(=O)C1=C(OC(C)(C)CC1O)C2=O (configuration not stated)	> 200 µM	10.7 µM	
O=c1n(-c2ccccc2)c2nc3ccccc3nc2n1-c1ccc(Cl)c(Cl)c1	> 61.7 µM	30.2 µM	
CC(=O)N(C(C)=O)c1nc2c(c(=O)n(C)c(=O)n2C)n1C	> 200 µM	> 200 µM	
CCCOC(=O)Nc1ccc2c(c1)c1c3[nH]c(=O)c4cccn4c3ccc1n2CC	> 200 µM	> 200 µM	
COC(=O)C12C3C4C5C3(C#N)C1C5(C(=O)OC)C42C(=O)N(C(C)C)C(C)C (configuration not stated)	> 97.7 µM	> 97.7 µM	
N#CC(N=O)C(N)=O (configuration not stated)	> 200 µM	> 200 µM	
CCCCCCCCSC(=O)n1cc(F)c(=O)[nH]c1=O	> 61.7 µM	> 61.7 µM	
COc1ccc(/C=N/Nc2ccc(S(=O)(=O)O)cc2)cc1	> 759 µM	331 µM	
O=C1/C(=C/c2ccccc2)CN(C(=O)CCN2CCCC2)C/C1=C\c1ccccc1	> 575 µM	0.813 µM	
NS(=O)(=O)c1cc2c(cc1Cl)NC(CC1CCCC1)NS2(=O)=O (configuration not stated)	> 200 µM	> 200 µM	
COCC(=O)[C@]1(O)Cc2c(O)c3c(c(O)c2[C@@H](OC2CC(N)C(O)C(C)O2)C1)C(=O)c1c(OC)cccc1C3=O (some centres not stated)	> 0.2 µM	0.0631 µM	
COC(=O)/C(=N\NC(N)=O)C(C(=O)C(=O)Nc1ccccc1OC)c1nc2ccc([N+](=O)[O-])cc2[nH]c1=O (configuration not stated)	> 479 µM	229 µM	
O=C1C(=O)C(c2ccccc2)Oc2ccccc21 (configuration not stated)	> 200 µM	25.1 µM	
COc1cc(N(CCC#N)CCC#N)ccc1/C=C1\SC(=S)NC1=O	> 200 µM	> 200 µM	
COc1ccc(C2=C(Cl)c3cc(OC)c(OC)cc3C2OC)cc1OC (configuration not stated)	> 26.3 µM	> 26.3 µM	
O=C1/C(=N\O)C2CCC1C2 (configuration not stated)	> 363 µM	> 363 µM	
N#CC(C#N)=Cc1ccccc1O	> 200 µM	40.7 µM	
COc1ccc(C(c2c(O)c3ccccc3oc2=O)N2CCOCC2)cc1 (configuration not stated)	> 200 µM	> 100 µM	
COc1ccc2nc(C)cc(NCCCCCCCCCNc3cc(C)nc4ccc(OC)cc34)c2c1	> 33.1 µM	0.891 µM	
N#C/C(=C\c1ccc2ccccc2c1)c1ccccc1	> 14.8 µM	> 14.8 µM	
CC1(C)NC(=O)C(NC(=O)C(N)CC(=O)O)CCCCNC(=O)CCNC1=O (configuration not stated) (H-DK[Aib][βAla]; lactam 2-C; configuration not given here)	> 200 µM	> 200 µM	
COc1ccc(/C=C2\CCc3ccccc3C2=O)cc1OC	> 33.9 µM	> 33.9 µM	

SMILES	EC50	IC50	outcome
O=[N+]([O-])c1c(Cl)cccc1-c1c[nH]c(Cl)c1Cl	> 123 µM	20.4 µM	
Cc1ccc(S(=O)(=O)N2CCCC2C(=O)NNC(N)=S)cc1 (configuration not stated)	> 200 µM	117 µM	
CN(C)c1ccc(/C=C2\Oc3cc(O)ccc3C2=O)cc1	> 200 µM	45.7 µM	
O=C1c2cccc3cc([N+](=O)[O-])cc(c23)C(=O)N1Cc1cccnc1			inactive
CSc1nc(N)n(C(=O)c2ccc([N+](=O)[O-])cc2)n1	> 13.5 µM	> 13.5 µM	
CCN(CC)C1=C(N(CC)CC)C(N(CC)CC)=C(N(CC)CC)C1=O.[C-]#[O+].[C-]#[O+].[C-]#[O+].[Fe]	> 2.88 µM	> 2.88 µM	
COC1=C(C)C2CC(=O)OC3CC4C(C)CC(OC(C)=O)C(=O)[C@]4(C)C(C1=O)[C@@]32C (some centres not stated)			inactive
COc1ccc2c(c1)C(=O)c1ccc(OC)cc1C2=S			inactive
C[CH2][Sn]1([CH2]C)[O]C(=O)[O][Sn]([CH2]C)([CH2]C)[O]1	> 8.32 µM	2.24 µM	
COc1nc2[nH]c(C)cc(=O)c2c2ccccc12	> 200 µM	> 200 µM	
CCn1cc(C(=O)O)c(=O)c2cccc(OC)c21			inactive
CCC(Oc1c2ccoc2c(OC)c2oc(=O)cc(O)c12)C(=O)O (configuration not stated)	> 269 µM	> 269 µM	
CC1COC(C)(C)P(=O)(c2ccccc2)C1 (configuration not stated)	> 1050 µM	> 1050 µM	
CCC(CC)(C(=O)O)C(=O)O	> 200 µM	> 200 µM	
CSc1nc(C)c(C(=O)CCN2CCN(c3ccccn3)CC2)s1	> 87.1 µM	4.37 µM	
COC(=O)C(=O)C(C(=O)C=C(C)C)C(=O)C(=O)Nc1ccc(C)cc1C (configuration not stated)	> 100 µM	> 100 µM	
CCCCOC(=O)NC(Nc1ccc(S(=O)(=O)Nc2ccc(OC)nn2)cc1)(C(F)(F)F)C(F)(F)F	> 200 µM	> 200 µM	
Nc1nc(N)c(-c2cccc(C(F)(F)F)c2)c(Cc2cccc(C(F)(F)F)c2)n1	> 20 µM	0.759 µM	
CN(C)Cc1cc(/C=C/C(=O)c2ccc(Br)cc2)cc(CN(C)C)c1O	> 200 µM	10.5 µM	
